Source: the supplement of paper PMC10307832

How the values were obtained:
Assay in all cases: relative viability (nuclei count vs DMSO), 5 days (fraction); higher = more cells survive
EMC-BAC-2 = tested on: EMC-BAC-2
Outline: (§1)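 For relative viability, nuclei counts in treated wells were divided by those in vehicle wells. Lung cancer cell lines had been pin-tool dosed in 1536-well plates the day after seeding and cultured for 5 days, then fixed and stained in one step (final 0.05% Triton X-100, 1% formaldehyde, 1 ug/ml Hoechst) and imaged at 4×. Doses were one drug alone or a fixed anchor-drug dose plus five library-drug doses (not always all listed) in √10 steps, and values are duplicate-plate medians.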

HCC-366 = tested on: HCC-366
Outline: as §1

HCC-78 = tested on: HCC-78
Outline: as §1

LCLC-97TM1 = tested on: LCLC-97TM1
Outline: as §1

NCI-H1395 = tested on: NCI-H1395
Outline: as §1

NCI-H1648 = tested on: NCI-H1648
Outline: as §1

A549 = tested on: A549
Outline: as §1

Calu-6 = tested on: Calu-6
Outline: as §1

EBC-1 = tested on: EBC-1
Outline: as §1

IA-LM = tested on: IA-LM
Outline: as §1

NCI-H1299 = tested on: NCI-H1299
Outline: as §1

NCI-H1703 = tested on: NCI-H1703
Outline: as §1

Question: What does the source list for `Cc1cn(-c2cc(NC(=O)c3ccc(C)c(Nc4nccc(-c5cccnc5)n4)c3)cc(C(F)(F)F)c2)cn1` [Nilotinib] + CC(=O)c1c(C)c2cnc(Nc3ccc(N4CCNCC4)cn3)nc2n(C2CCCC2)c1=O [Palbociclib] (partner 0.5 µM)?
Answer: relative viability (EMC-BAC-2; first compound 0.001 µM): 0.477; relative viability (EMC-BAC-2; first compound 0.003162 µM): 0.47; relative viability (EMC-BAC-2; first compound 0.01 µM): 0.481; relative viability (EMC-BAC-2; first compound 0.03162 µM): 0.487; relative viability (EMC-BAC-2; first compound 0.1 µM): 0.526; relative viability (HCC-366; first compound 0.001 µM): 0.244; relative viability (HCC-366; first compound 0.003162 µM): 0.379; relative viability (HCC-366; first compound 0.01 µM): 0.396; relative viability (HCC-366; first compound 0.03162 µM): 0.36; relative viability (HCC-366; first compound 0.1 µM): 0.303; relative viability (HCC-78; first compound 0.001 µM): 0.476; relative viability (HCC-78; first compound 0.003162 µM): 0.509; relative viability (HCC-78; first compound 0.01 µM): 0.532; relative viability (HCC-78; first compound 0.03162 µM): 0.468; relative viability (HCC-78; first compound 0.1 µM): 0.524; relative viability (LCLC-97TM1; first compound 0.001 µM): 0.222; relative viability (LCLC-97TM1; first compound 0.003162 µM): 0.245; relative viability (LCLC-97TM1; first compound 0.01 µM): 0.225; relative viability (LCLC-97TM1; first compound 0.1 µM): 0.254; relative viability (NCI-H1395; first compound 0.001 µM): 0.636; relative viability (NCI-H1395; first compound 0.01 µM): 0.692; relative viability (NCI-H1395; first compound 0.03162 µM): 0.612; relative viability (NCI-H1395; first compound 0.1 µM): 0.599; relative viability (NCI-H1648; first compound 0.001 µM): 0.244; relative viability (NCI-H1648; first compound 0.003162 µM): 0.319; relative viability (NCI-H1648; first compound 0.01 µM): 0.294; relative viability (NCI-H1648; first compound 0.03162 µM): 0.254; relative viability (NCI-H1648; first compound 0.1 µM): 0.268

Question: How did the relative viability (EMC-BAC-2; first compound 0.02 µM) turn out when `CN1CCN(CCOc2cc(OC3CCOCC3)c3c(Nc4c(Cl)ccc5c4OCO5)ncnc3c2)CC1` [Saracatinib] + CC(=O)Nc1cccc(-n2c(=O)n(C3CC3)c(=O)c3c(Nc4ccc(I)cc4F)n(C)c(=O)c(C)c32)c1 [Trametinib] (partner 0.02 µM) was run?
Answer: 0.896

Question: And the relative viability (EMC-BAC-2; first compound 0.2 µM)?
Answer: 0.97

Question: And the relative viability (EMC-BAC-2; first compound 0.6325 µM)?
Answer: 1.11

Question: What about the relative viability (EMC-BAC-2; first compound 2 µM) of the same compound?
Answer: 0.901

Question: And the relative viability (HCC-366; first compound 0.02 µM)?
Answer: 0.337

Question: What about the relative viability (HCC-366; first compound 0.2 µM) of the same compound?
Answer: 0.128

Question: And the relative viability (HCC-366; first compound 0.6325 µM)?
Answer: 0.216

Question: What about the relative viability (HCC-366; first compound 2 µM) of the same compound?
Answer: 0.202

Question: What about the relative viability (HCC-78; first compound 0.02 µM) of the same compound?
Answer: 0.569

Question: What about the relative viability (HCC-78; first compound 0.6325 µM) of the same compound?
Answer: 0.869

Question: And the relative viability (HCC-78; first compound 2 µM)?
Answer: 0.523

Question: And the relative viability (LCLC-97TM1; first compound 0.02 µM)?
Answer: 0.222

Question: And the relative viability (LCLC-97TM1; first compound 0.2 µM)?
Answer: 0.21

Question: And the relative viability (LCLC-97TM1; first compound 0.6325 µM)?
Answer: 0.223

Question: And the relative viability (LCLC-97TM1; first compound 2 µM)?
Answer: 0.275

Question: What about the relative viability (NCI-H1395; first compound 0.02 µM) of the same compound?
Answer: 1.07

Question: What about the relative viability (NCI-H1395; first compound 0.2 µM) of the same compound?
Answer: 0.995

Question: What about the relative viability (NCI-H1395; first compound 0.6325 µM) of the same compound?
Answer: 0.953

Question: What about the relative viability (NCI-H1395; first compound 2 µM) of the same compound?
Answer: 0.905

Question: What about the relative viability (NCI-H1648; first compound 0.02 µM) of the same compound?
Answer: 0.436

Question: And the relative viability (NCI-H1648; first compound 0.2 µM)?
Answer: 0.47

Question: And the relative viability (NCI-H1648; first compound 0.6325 µM)?
Answer: 0.564

Question: And the relative viability (NCI-H1648; first compound 2 µM)?
Answer: 0.357

Question: How did the relative viability (EMC-BAC-2; first compound 0.02 µM) turn out when `CN1CCN(CCOc2cc(OC3CCOCC3)c3c(Nc4c(Cl)ccc5c4OCO5)ncnc3c2)CC1` [Saracatinib] + CC(=O)c1c(C)c2cnc(Nc3ccc(N4CCNCC4)cn3)nc2n(C2CCCC2)c1=O [Palbociclib] (partner 0.5 µM) was run?
Answer: 0.507

Question: What about the relative viability (EMC-BAC-2; first compound 0.2 µM) of the same compound?
Answer: 0.483

Question: What about the relative viability (EMC-BAC-2; first compound 0.6325 µM) of the same compound?
Answer: 0.517

Question: What about the relative viability (EMC-BAC-2; first compound 2 µM) of the same compound?
Answer: 0.511

Question: What about the relative viability (HCC-366; first compound 0.02 µM) of the same compound?
Answer: 0.382

Question: And the relative viability (HCC-366; first compound 0.2 µM)?
Answer: 0.176

Question: And the relative viability (HCC-366; first compound 0.6325 µM)?
Answer: 0.272

Question: What about the relative viability (HCC-366; first compound 2 µM) of the same compound?
Answer: 0.164

Question: What about the relative viability (HCC-78; first compound 0.02 µM) of the same compound?
Answer: 0.461

Question: What about the relative viability (HCC-78; first compound 0.2 µM) of the same compound?
Answer: 0.406

Question: And the relative viability (HCC-78; first compound 0.6325 µM)?
Answer: 0.45

Question: What about the relative viability (HCC-78; first compound 2 µM) of the same compound?
Answer: 0.342

Question: What about the relative viability (LCLC-97TM1; first compound 0.02 µM) of the same compound?
Answer: 0.21

Question: What about the relative viability (LCLC-97TM1; first compound 0.2 µM) of the same compound?
Answer: 0.185

Question: And the relative viability (LCLC-97TM1; first compound 0.6325 µM)?
Answer: 0.281

Question: What about the relative viability (LCLC-97TM1; first compound 2 µM) of the same compound?
Answer: 0.175

Question: And the relative viability (NCI-H1395; first compound 0.02 µM)?
Answer: 0.606

Question: What about the relative viability (NCI-H1395; first compound 0.2 µM) of the same compound?
Answer: 0.562

Question: And the relative viability (NCI-H1395; first compound 0.6325 µM)?
Answer: 0.598

Question: And the relative viability (NCI-H1395; first compound 2 µM)?
Answer: 0.516

Question: What about the relative viability (NCI-H1648; first compound 0.02 µM) of the same compound?
Answer: 0.252

Question: What about the relative viability (NCI-H1648; first compound 0.2 µM) of the same compound?
Answer: 0.291

Question: And the relative viability (NCI-H1648; first compound 0.6325 µM)?
Answer: 0.304

Question: And the relative viability (NCI-H1648; first compound 2 µM)?
Answer: 0.307

Question: With `CN1CCN(CCOc2cc(OC3CCOCC3)c3c(Nc4c(Cl)ccc5c4OCO5)ncnc3c2)CC1` [Saracatinib] + CS(=O)(=O)N1CCN(Cc2cc3nc(-c4cccc5[nH]ncc45)nc(N4CCOCC4)c3s2)CC1 [Pictilisib] (partner 1 µM) as the compound, how does the relative viability (A549; first compound 0.02 µM) read?
Answer: 0.491

Question: What about the relative viability (A549; first compound 0.2 µM) of the same compound?
Answer: 0.412

Question: What about the relative viability (A549; first compound 0.6325 µM) of the same compound?
Answer: 0.515

Question: And the relative viability (A549; first compound 2 µM)?
Answer: 0.399

Question: What about the relative viability (Calu-6; first compound 0.02 µM) of the same compound?
Answer: 0.858

Question: What about the relative viability (Calu-6; first compound 0.2 µM) of the same compound?
Answer: 0.645

Question: What about the relative viability (Calu-6; first compound 0.6325 µM) of the same compound?
Answer: 0.702

Question: And the relative viability (Calu-6; first compound 2 µM)?
Answer: 0.613

Question: What about the relative viability (EBC-1; first compound 0.02 µM) of the same compound?
Answer: 0.445

Question: What about the relative viability (EBC-1; first compound 0.2 µM) of the same compound?
Answer: 0.397

Question: What about the relative viability (EBC-1; first compound 0.6325 µM) of the same compound?
Answer: 0.387

Question: What about the relative viability (EBC-1; first compound 2 µM) of the same compound?
Answer: 0.429

Question: What about the relative viability (EMC-BAC-2; first compound 0.02 µM) of the same compound?
Answer: 0.546

Question: And the relative viability (EMC-BAC-2; first compound 0.2 µM)?
Answer: 0.507

Question: What about the relative viability (EMC-BAC-2; first compound 0.6325 µM) of the same compound?
Answer: 0.497

Question: What about the relative viability (EMC-BAC-2; first compound 2 µM) of the same compound?
Answer: 0.34

Question: And the relative viability (HCC-366; first compound 0.02 µM)?
Answer: 0.132

Question: And the relative viability (HCC-366; first compound 0.2 µM)?
Answer: 0.151

Question: What about the relative viability (HCC-366; first compound 0.6325 µM) of the same compound?
Answer: 0.107

Question: And the relative viability (HCC-366; first compound 2 µM)?
Answer: 0.103

Question: What about the relative viability (HCC-78; first compound 0.02 µM) of the same compound?
Answer: 0.242

Question: And the relative viability (HCC-78; first compound 0.2 µM)?
Answer: 0.154

Question: And the relative viability (HCC-78; first compound 0.6325 µM)?
Answer: 0.178

Question: What about the relative viability (HCC-78; first compound 2 µM) of the same compound?
Answer: 0.21

Question: What about the relative viability (IA-LM; first compound 0.02 µM) of the same compound?
Answer: 0.33

Question: What about the relative viability (IA-LM; first compound 0.2 µM) of the same compound?
Answer: 0.445

Question: What about the relative viability (IA-LM; first compound 0.6325 µM) of the same compound?
Answer: 0.515

Question: And the relative viability (IA-LM; first compound 2 µM)?
Answer: 0.37

Question: And the relative viability (LCLC-97TM1; first compound 0.02 µM)?
Answer: 0.231

Question: What about the relative viability (LCLC-97TM1; first compound 0.2 µM) of the same compound?
Answer: 0.12

Question: What about the relative viability (LCLC-97TM1; first compound 0.6325 µM) of the same compound?
Answer: 0.193

Question: And the relative viability (LCLC-97TM1; first compound 2 µM)?
Answer: 0.186

Question: What about the relative viability (NCI-H1299; first compound 0.02 µM) of the same compound?
Answer: 0.69

Question: And the relative viability (NCI-H1299; first compound 0.2 µM)?
Answer: 0.528

Question: What about the relative viability (NCI-H1299; first compound 0.6325 µM) of the same compound?
Answer: 0.387

Question: What about the relative viability (NCI-H1299; first compound 2 µM) of the same compound?
Answer: 0.256

Question: And the relative viability (NCI-H1395; first compound 0.02 µM)?
Answer: 0.603

Question: And the relative viability (NCI-H1395; first compound 0.2 µM)?
Answer: 0.497

Question: And the relative viability (NCI-H1395; first compound 0.6325 µM)?
Answer: 0.672

Question: What about the relative viability (NCI-H1395; first compound 2 µM) of the same compound?
Answer: 0.528

Question: And the relative viability (NCI-H1703; first compound 0.02 µM)?
Answer: 0.228

Question: And the relative viability (NCI-H1703; first compound 0.2 µM)?
Answer: 0.242

Question: What about the relative viability (NCI-H1703; first compound 0.6325 µM) of the same compound?
Answer: 0.181

Question: What about the relative viability (NCI-H1703; first compound 2 µM) of the same compound?
Answer: 0.203
